Assays:
Format in all cases: in vivo
Details in all cases: 250 g/ha unless otherwise stated, evaluated after 13 days, five-point scale
[1] = system: Amaranthus retoflexus (AMARE); test: Test 1 glasshouse herbicide test, post-emergence application (Table B1)
Experimental: (§1) Seeds of a variety of test species are sown in standard soil in pots (Lolium perenne (LOLPE), Solanum nigrum (SOLNI), Amaranthus retoflexus (AMARE), Setaria faberi (SETFA), Echinochloa crus-galli (ECHCG) and Ipomoea hederacea (IPOHE)). After cultivation for one day (pre-emergence) or after 8 days cultivation (post-emergence) under controlled conditions in a glasshouse (at 24/16° C., day/night; 14 hours light; 65% humidity), the plants are sprayed with an aqueous spray solution derived from the formulation of the technical active ingredient in acetone/water (50:50) solution containing 0.5% Tween 20 (polyoxyethelyene sorbitan monolaurate, CAS RN 9005-64-5). Compounds are applied at 250 g/ha unless otherwise stated. The test plants are then grown in a glasshouse under controlled conditions in a glasshouse (at 24/16° C., day/night; 14 hours light; 65% humidity) and watered twice daily. After 13 days for pre and post-emergence, the test is evaluated for the percentage damage caused to the plant. The biological activities (% phytotoxicity) are shown in Tables B1 and B2 below using a five-point scale (5=81 to 100%; 4=61 to 80%; 3=41 to 60%; 2=21 to 40%; 1=0 to 20%).

[2] = system: Echinochloa crus-galli (ECHCG); test: as above
Experimental: as §1

[3] = system: Ipomoea hederacea (IPOHE); test: as above
Experimental: as §1

Setaria faberi (SETFA) [4] = test: as above
Experimental: as §1

[5] = system: Amaranthus retoflexus (AMARE); test: Test 1 glasshouse herbicide test, pre-emergence application (Table B2)
Experimental: as §1

[6] = system: Echinochloa crus-galli (ECHCG); test: as above
Experimental: as §1

[7] = system: Ipomoea hederacea (IPOHE); test: as above
Experimental: as §1

Setaria faberi (SETFA) [8] = test: as above
Experimental: as §1

N#Cc1cccc(Oc2ncc(Cl)cn2)c1SCCCCCC(F)(F)F [Compound A40]
% phytotoxicity AMARE, post-emergence application [1]: 5 (5=81 to 100%)
% phytotoxicity ECHCG, post-emergence application [2]: 4 (4=61 to 80%)
% phytotoxicity IPOHE, post-emergence application [3]: 3 (3=41 to 60%)
% phytotoxicity SETFA, post-emergence application (Setaria faberi (SETFA) [4]): 4 (4=61 to 80%)
% phytotoxicity AMARE, pre-emergence application [5]: 5 (5=81 to 100%)
% phytotoxicity ECHCG, pre-emergence application [6]: 4 (4=61 to 80%)
% phytotoxicity IPOHE, pre-emergence application [7]: 1 (1=0 to 20%)
% phytotoxicity SETFA, pre-emergence application (Setaria faberi (SETFA) [8]): 5 (5=81 to 100%)

COCCSc1ccccc1Oc1ncc(Cl)cn1 [Compound A41]
% phytotoxicity AMARE, post-emergence application [1]: 3 (3=41 to 60%)
% phytotoxicity ECHCG, post-emergence application [2]: 3 (3=41 to 60%)
% phytotoxicity IPOHE, post-emergence application [3]: 3 (3=41 to 60%)
% phytotoxicity SETFA, post-emergence application (Setaria faberi (SETFA) [4]): 2 (2=21 to 40%)
% phytotoxicity AMARE, pre-emergence application [5]: 1 (1=0 to 20%)
% phytotoxicity ECHCG, pre-emergence application [6]: 2 (2=21 to 40%)
% phytotoxicity IPOHE, pre-emergence application [7]: 2 (2=21 to 40%)
% phytotoxicity SETFA, pre-emergence application (Setaria faberi (SETFA) [8]): 2 (2=21 to 40%)

COCCS(=O)(=O)c1ccccc1Oc1ncc(Cl)cn1 [Compound A42]
% phytotoxicity AMARE, post-emergence application [1]: 2 (2=21 to 40%)
% phytotoxicity ECHCG, post-emergence application [2]: 1 (1=0 to 20%)
% phytotoxicity IPOHE, post-emergence application [3]: 1 (1=0 to 20%)
% phytotoxicity SETFA, post-emergence application (Setaria faberi (SETFA) [4]): 1 (1=0 to 20%)
% phytotoxicity AMARE, pre-emergence application [5]: 1 (1=0 to 20%)
% phytotoxicity ECHCG, pre-emergence application [6]: 1 (1=0 to 20%)
% phytotoxicity IPOHE, pre-emergence application [7]: 1 (1=0 to 20%)
% phytotoxicity SETFA, pre-emergence application (Setaria faberi (SETFA) [8]): 1 (1=0 to 20%)

CCCCCS(=O)(=O)c1ccccc1Oc1ncc(Cl)cn1 [Compound A43]
% phytotoxicity AMARE, post-emergence application [1]: 3 (3=41 to 60%)
% phytotoxicity ECHCG, post-emergence application [2]: 2 (2=21 to 40%)
% phytotoxicity IPOHE, post-emergence application [3]: 1 (1=0 to 20%)
% phytotoxicity SETFA, post-emergence application (Setaria faberi (SETFA) [4]): 2 (2=21 to 40%)
% phytotoxicity AMARE, pre-emergence application [5]: 5 (5=81 to 100%)
% phytotoxicity ECHCG, pre-emergence application [6]: 4 (4=61 to 80%)
% phytotoxicity IPOHE, pre-emergence application [7]: 1 (1=0 to 20%)
% phytotoxicity SETFA, pre-emergence application (Setaria faberi (SETFA) [8]): 4 (4=61 to 80%)

CCCCCSc1ccccc1Oc1ncc(Cl)cn1 [Compound A44]
% phytotoxicity AMARE, post-emergence application [1]: 5 (5=81 to 100%)
% phytotoxicity ECHCG, post-emergence application [2]: 4 (4=61 to 80%)
% phytotoxicity IPOHE, post-emergence application [3]: 1 (1=0 to 20%)
% phytotoxicity SETFA, post-emergence application (Setaria faberi (SETFA) [4]): 2 (2=21 to 40%)
% phytotoxicity AMARE, pre-emergence application [5]: 5 (5=81 to 100%)
% phytotoxicity ECHCG, pre-emergence application [6]: 5 (5=81 to 100%)
% phytotoxicity IPOHE, pre-emergence application [7]: 1 (1=0 to 20%)
% phytotoxicity SETFA, pre-emergence application (Setaria faberi (SETFA) [8]): 5 (5=81 to 100%)

C#CCSc1ccccc1Oc1ncc(Cl)cn1 [Compound A45]
% phytotoxicity AMARE, post-emergence application [1]: 3 (3=41 to 60%)
% phytotoxicity ECHCG, post-emergence application [2]: 3 (3=41 to 60%)
% phytotoxicity IPOHE, post-emergence application [3]: 1 (1=0 to 20%)
% phytotoxicity SETFA, post-emergence application (Setaria faberi (SETFA) [4]): 2 (2=21 to 40%)
% phytotoxicity AMARE, pre-emergence application [5]: 3 (3=41 to 60%)
% phytotoxicity ECHCG, pre-emergence application [6]: 3 (3=41 to 60%)
% phytotoxicity IPOHE, pre-emergence application [7]: 1 (1=0 to 20%)
% phytotoxicity SETFA, pre-emergence application (Setaria faberi (SETFA) [8]): 3 (3=41 to 60%)

C#CCS(=O)(=O)c1ccccc1Oc1ncc(Cl)cn1 [Compound A46]
% phytotoxicity AMARE, post-emergence application [1]: 1 (1=0 to 20%)
% phytotoxicity ECHCG, post-emergence application [2]: 1 (1=0 to 20%)
% phytotoxicity IPOHE, post-emergence application [3]: 1 (1=0 to 20%)
% phytotoxicity SETFA, post-emergence application (Setaria faberi (SETFA) [4]): 1 (1=0 to 20%)
% phytotoxicity AMARE, pre-emergence application [5]: 1 (1=0 to 20%)
% phytotoxicity ECHCG, pre-emergence application [6]: 1 (1=0 to 20%)
% phytotoxicity IPOHE, pre-emergence application [7]: 1 (1=0 to 20%)
% phytotoxicity SETFA, pre-emergence application (Setaria faberi (SETFA) [8]): 1 (1=0 to 20%)

C=CCS(=O)(=O)c1ccccc1Oc1ncc(Cl)cn1 [Compound A48]
% phytotoxicity AMARE, post-emergence application [1]: 2 (2=21 to 40%)
% phytotoxicity ECHCG, post-emergence application [2]: 1 (1=0 to 20%)
% phytotoxicity IPOHE, post-emergence application [3]: 1 (1=0 to 20%)
% phytotoxicity SETFA, post-emergence application (Setaria faberi (SETFA) [4]): 1 (1=0 to 20%)
% phytotoxicity AMARE, pre-emergence application [5]: 1 (1=0 to 20%)
% phytotoxicity ECHCG, pre-emergence application [6]: 1 (1=0 to 20%)
% phytotoxicity IPOHE, pre-emergence application [7]: 1 (1=0 to 20%)
% phytotoxicity SETFA, pre-emergence application (Setaria faberi (SETFA) [8]): 1 (1=0 to 20%)

CCCSc1ccccc1Oc1ncc(Cl)cn1 [Compound A49]
% phytotoxicity AMARE, post-emergence application [1]: 4 (4=61 to 80%)
% phytotoxicity ECHCG, post-emergence application [2]: 4 (4=61 to 80%)
% phytotoxicity IPOHE, post-emergence application [3]: 4 (4=61 to 80%)
% phytotoxicity SETFA, post-emergence application (Setaria faberi (SETFA) [4]): 4 (4=61 to 80%)
% phytotoxicity AMARE, pre-emergence application [5]: 5 (5=81 to 100%)
% phytotoxicity ECHCG, pre-emergence application [6]: 5 (5=81 to 100%)
% phytotoxicity IPOHE, pre-emergence application [7]: 3 (3=41 to 60%)
% phytotoxicity SETFA, pre-emergence application (Setaria faberi (SETFA) [8]): 5 (5=81 to 100%)

CCCS(=O)(=O)c1ccccc1Oc1ncc(Cl)cn1 [Compound A50]
% phytotoxicity AMARE, post-emergence application [1]: 4 (4=61 to 80%)
% phytotoxicity ECHCG, post-emergence application [2]: 1 (1=0 to 20%)
% phytotoxicity IPOHE, post-emergence application [3]: 2 (2=21 to 40%)
% phytotoxicity SETFA, post-emergence application (Setaria faberi (SETFA) [4]): 1 (1=0 to 20%)
% phytotoxicity AMARE, pre-emergence application [5]: 5 (5=81 to 100%)
% phytotoxicity ECHCG, pre-emergence application [6]: 4 (4=61 to 80%)
% phytotoxicity IPOHE, pre-emergence application [7]: 2 (2=21 to 40%)
% phytotoxicity SETFA, pre-emergence application (Setaria faberi (SETFA) [8]): 5 (5=81 to 100%)

O=S(=O)(CC1CC1)c1ccccc1Oc1ncc(Cl)cn1 [Compound A51]
% phytotoxicity AMARE, post-emergence application [1]: 3 (3=41 to 60%)
% phytotoxicity ECHCG, post-emergence application [2]: 1 (1=0 to 20%)
% phytotoxicity IPOHE, post-emergence application [3]: 1 (1=0 to 20%)
% phytotoxicity SETFA, post-emergence application (Setaria faberi (SETFA) [4]): 1 (1=0 to 20%)
% phytotoxicity AMARE, pre-emergence application [5]: 4 (4=61 to 80%)
% phytotoxicity ECHCG, pre-emergence application [6]: 1 (1=0 to 20%)
% phytotoxicity IPOHE, pre-emergence application [7]: 1 (1=0 to 20%)
% phytotoxicity SETFA, pre-emergence application (Setaria faberi (SETFA) [8]): 2 (2=21 to 40%)

CC(C)=CCSc1ccccc1Oc1ncc(Cl)cn1 [Compound A52]
% phytotoxicity AMARE, post-emergence application [1]: 3 (3=41 to 60%)
% phytotoxicity ECHCG, post-emergence application [2]: 4 (4=61 to 80%)
% phytotoxicity IPOHE, post-emergence application [3]: 1 (1=0 to 20%)
% phytotoxicity SETFA, post-emergence application (Setaria faberi (SETFA) [4]): 3 (3=41 to 60%)
% phytotoxicity AMARE, pre-emergence application [5]: 1 (1=0 to 20%)
% phytotoxicity ECHCG, pre-emergence application [6]: 2 (2=21 to 40%)
% phytotoxicity IPOHE, pre-emergence application [7]: 1 (1=0 to 20%)
% phytotoxicity SETFA, pre-emergence application (Setaria faberi (SETFA) [8]): 1 (1=0 to 20%)

CCCCCCSc1ccccc1Oc1ncc(Cl)cn1 [Compound A53]
% phytotoxicity AMARE, post-emergence application [1]: 4 (4=61 to 80%)
% phytotoxicity ECHCG, post-emergence application [2]: 1 (1=0 to 20%)
% phytotoxicity IPOHE, post-emergence application [3]: 1 (1=0 to 20%)
% phytotoxicity SETFA, post-emergence application (Setaria faberi (SETFA) [4]): 1 (1=0 to 20%)
% phytotoxicity AMARE, pre-emergence application [5]: 3 (3=41 to 60%)
% phytotoxicity ECHCG, pre-emergence application [6]: 2 (2=21 to 40%)
% phytotoxicity IPOHE, pre-emergence application [7]: 1 (1=0 to 20%)
% phytotoxicity SETFA, pre-emergence application (Setaria faberi (SETFA) [8]): 3 (3=41 to 60%)

FC(F)(F)CSc1ccccc1Oc1ncc(Cl)cn1 [Compound A55]
% phytotoxicity AMARE, post-emergence application [1]: 5 (5=81 to 100%)
% phytotoxicity ECHCG, post-emergence application [2]: 4 (4=61 to 80%)
% phytotoxicity IPOHE, post-emergence application [3]: 4 (4=61 to 80%)
% phytotoxicity SETFA, post-emergence application (Setaria faberi (SETFA) [4]): 4 (4=61 to 80%)
% phytotoxicity AMARE, pre-emergence application [5]: 5 (5=81 to 100%)
% phytotoxicity ECHCG, pre-emergence application [6]: 5 (5=81 to 100%)
% phytotoxicity IPOHE, pre-emergence application [7]: 2 (2=21 to 40%)
% phytotoxicity SETFA, pre-emergence application (Setaria faberi (SETFA) [8]): 5 (5=81 to 100%)

Reference: patent publication US20220324815A1, “2-PHENOXY-PYRIMIDINE DERIVATIVES AS HERBICIDAL COMPOUNDS” (SYNGENTA CROP PROTECTION AG, priority 2019, published 2022)
